This is an account of results in ChEMBL document CHEMBL1144400 (J Med Chem, 2005).

This experiment addresses Coagulation factor X (Homo sapiens, UniProt P00742). As to the kind of experiment: Binding affinity for human factor Xa.

Sequence of Coagulation factor X (P00742 41-179 limits assumed): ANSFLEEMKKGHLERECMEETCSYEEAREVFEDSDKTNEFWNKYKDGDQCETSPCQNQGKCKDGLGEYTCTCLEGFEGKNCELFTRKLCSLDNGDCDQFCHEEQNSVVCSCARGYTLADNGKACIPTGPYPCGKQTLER
Sequence of Coagulation factor X (P00742 235-488 limits assumed): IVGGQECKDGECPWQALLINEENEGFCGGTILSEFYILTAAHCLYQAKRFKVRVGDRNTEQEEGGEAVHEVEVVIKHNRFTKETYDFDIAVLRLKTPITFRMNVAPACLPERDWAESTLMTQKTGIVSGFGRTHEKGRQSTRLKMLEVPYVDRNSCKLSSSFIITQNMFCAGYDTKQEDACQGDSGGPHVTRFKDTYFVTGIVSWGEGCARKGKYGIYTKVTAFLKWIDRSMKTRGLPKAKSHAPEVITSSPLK

Consider `Cc1ccc(C)c2c1cc(C(=O)NC1CCN(C(C)C)CC1)n2Cc1cc(-c2ccc(Cl)s2)on1`, for which the inhibition constant (Ki) was found to be 1 nM. This lies in the single-digit nanomolar range. For `CC(C)N1CCC(NC(=O)c2c(C#N)c3ccccc3n2Cc2cc(-c3ccc(Cl)s3)on2)CC1` the value was 0.3 nM; for `CC(C)N1CCC(NC(=O)c2cc3c(Cl)cccc3n2Cc2cc(-c3ccc(Cl)s3)on2)CC1`, 7 nM.

`Cc1c(C(=O)NC2CCN(C(C)C)CC2)n(Cc2cc(-c3ccc(Cl)s3)on2)c2ccccc12` displayed a Ki of 3 nM. This Ki lies about 2.3-fold lower than the previous one.

The compound `CC(C)N1CCC(NC(=O)c2c(C#N)c3cc(S(C)(=O)=O)ccc3n2Cc2cc(-c3ccc(Cl)s3)on2)CC1` gave an inhibition constant Ki of 7 nM. For `CC(C)N1CCC(NC(=O)c2cc3cccc(Cl)c3n2Cc2cc(-c3ccc(Cl)s3)on2)CC1` the value was 0.7 nM; for `CC(C)N1CCC(NC(=O)c2cc3cc(Br)ccc3n2Cc2cc(-c3ccc(Cl)s3)on2)CC1`, 9 nM.

As to `COc1cccc(Cn2c(C(=O)NC3CCN(C(C)C)CC3)c(C#N)c3cccc(C)c32)c1`, the affinity, expressed as Ki, was 406 nM. For `Cc1cccc2c1cc(C(=O)NC1CCN(C(C)C)CC1)n2CC(=O)Nc1ccc(C(=N)N)cc1` the value was 25 nM.

`Cc1cccc2cc(C(=O)NC3CCN(C(C)C)CC3)n(CC(=O)Nc3ccc(Cl)cc3)c12` showed a Ki of 3 nM. For `Cc1ccc2cc(C(=O)NC3CCN(C(C)C)CC3)n(Cc3cc(-c4ccc(Cl)s4)on3)c2c1` the value was 18 nM. For `Cc1cccc2c(C#N)c(C(=O)NC3CCN(C(C)C)CC3)n(Cc3cc(-c4ccc(Cl)s4)on3)c12` the value was 0.07 nM; for `CC(C)N1CCC(NC(=O)c2cc3cc(F)ccc3n2Cc2cc(-c3ccc(Cl)s3)on2)CC1`, 3 nM; for `Cc1cccc2c(C#N)c(C(=O)NC3CCN(C(C)C)CC3)n(CC(=O)Nc3ccc(Cl)cc3)c12`, 26 nM.

Take `CC(C)N1CCC(NC(=O)c2cc3cccc([N+](=O)[O-])c3n2Cc2cc(-c3cc(Cl)cs3)on2)CC1`: affinity was put at a Ki of 0.1 nM.
